{
  "source": "patent US20050154034A1",
  "about": "“Methods of using zonisamide as an adjunctive therapy for partial seizures” (Eisai Co., Ltd., priority 2004, published 2005)",
  "key": {"[1]": {"details": "cited from earlier work"}, "[2]": {"test_system": "cultured mouse spinal cord neurons", "details": "10-30 μg/mL, cited from earlier work"}, "[3]": {"test": "Pharmacovigilance review of rhabdomyolysis/CPK elevation in zonisamide-treated patients", "assay_type": "in vivo, human patients (U.S. and Japan)", "description": "The pharmacovigilance data that were collected, reviewed and analyzed provided the following information in respect of the incidence of rhabdomyolysis/CPK elevation in the zonisamide-treated patient population. To date, a total of 10 cases fulfill the criteria of potential rhabdomyolysis cases. These 10 cases were reviewed in detail for evaluation of possible safety signals. All 10 cases fulfill serious criteria. Of these 10 cases, seven (7) cases were reported as rhabdomyolysis and three (3) cases were reported as CPK increase.\nOf the seven (7) rhabdomyolysis cases, six (6) are verbatim cases from Dainippon and one (1) originates in the U.S. Of the seven (7) cases, three (3) were pediatric cases and four (4) were adult cases.\nOf the seven (7) rhabdomyolysis cases, two (2) cases have strong confounding factors, but the possibility of zonisamide involvement cannot be completely excluded. Two (2) cases have moderate confounding factors, and zonisamide involvement may be possible.\nOf the three (3) cases of CPK increase, one (1) is a verbatim report from Dainippon, and two (2) originated from the U.S. Of the three (3) cases, two are pediatric patients and one is an adult. Of these three (3) cases, two (2) recovered and the outcome of the third is unknown.\nOf the three (3) cases of CPK increase, one (1) case has strong confounding factors, but the possibility of zonisamide involvement cannot be completely excluded. One (1) case has weak confounding factors, and zonisamide involvement may be possible.\nEstimates of zonisamide exposure, based upon retail and mail order prescriptions, indicate that the number of unique patients taking zonisamide capsules in the U.S. is about 37,276 (total prescriptions per year/average number of prescriptions per patient per year less a calculated percentage decrease based on estimated annual dropouts) in the time between approval in 2000 and December 2002 . Hospital patient data for that period, however, is not available and is not reflected in the estimates. Estimates of patient exposure for Japan indicate that the number of unique patients taking zonisamide is about 1,185,177 for time beginning with the approval in Japan through December 2002. Japanese data includes prescription and hospital patient data. Exposure from clinical trials are not included in the U.S. or Japanese exposure estimates. Based on these statistics, the estimated number of patients exposed to zonisamide in the U.S. and Japan is 1,222,453 unique patients. This is a rather conservative estimate, assuring that the number of patients actually exposed to zonisamide is unlikely to be higher than the estimate provided. Similarly, the incidences of rhabdomyolysis estimated herein are unlikely to be higher than calculated. […] For the one (1) case reported in Japan, this amounts to an estimated incidence of 1:1,185,177 based upon estimated Japanese exposure. For the one (1) case reported in the US, this represents an estimated incidence of 1:37,276 based upon estimated US exposure. These two (2) cases of CPK increase represent a combined estimated incidence of 1:611,227 based upon the combined estimates of Japanese and US exposure. Thus, the overall estimated incidences of elevated CPK are 1:395,059 for Japanese cases, 1:18,638 for US cases and 1:244,491 for both Japanese and US cases, based on combining the reported cases of rhabdomyolysis and elevated CPK (the standard surrogate marker of muscle breakdown and typically seen in rhabdomyolysis).\nCombining all the above cases of rhabdomyolysis and CPK increase, the estimated incidences of any patient who has experienced an elevated CPK (marker of muscle breakdown) are 1:400,000 for Japanese cases and 1:18,000 for US cases."}, "rat hippocampal slices": {"test_system": "rat hippocampal slices", "details": "10-30 μg/mL; cited from earlier work"}, "carbonic anhydrase": {"test_system": "carbonic anhydrase", "details": "fraction of the inhibition of acetazolamide; cited from earlier work"}, "[4]": {"test_system": "GABA/benzodiazepine receptor ionophore complex", "details": "in vitro; cited from earlier work"}, "T-type Ca2+ currents": {"test_system": "T-type Ca2+ currents", "details": "in vitro; cited from earlier work"}, "sodium channels": {"test_system": "sodium channels", "details": "in vitro; cited from earlier work"}, "[5]": {"test_system": "dopaminergic and serotonergic neurotransmission", "details": "in vivo microdialysis; cited from earlier work"}},
  "data": [
    {"compound": "NS(=O)(=O)Cc1noc2ccccc12", "note": "[zonisamide, 1,2-benzisoxazole-3-methanesulfonamide]", "values": [
      {"measurement": "frequency of side effects by dose", "setting": "[1]; doses of 300 mg per day and above", "value": "more frequent"},
      {"measurement": "half-life", "setting": "[1]; human, in vivo", "value": "long half-life"},
      {"measurement": "hepatic enzyme induction", "setting": "[1]; human, in vivo", "value": "not known to be a hepatic enzyme inducer"},
      {"measurement": "time required to achieve steady state levels", "setting": "[1]; upon reaching a stable dose or following dosage adjustment", "value": "up to two weeks"},
      {"measurement": "postsynaptic GABA or glutamate responses", "setting": "[2]; cultured mouse spinal cord neurons", "value": "without affecting"},
      {"measurement": "synaptically-driven electrical activity", "setting": "[2]", "value": "suppresses"},
      {"measurement": "CPK increase cases recovered", "setting": "[3]; human, in vivo", "value": 2, "unit": "cases"},
      {"measurement": "cases fulfilling the criteria of potential rhabdomyolysis cases", "setting": "[3]; human, in vivo", "value": 10, "unit": "cases"},
      {"measurement": "cases of CPK increase with no or only weak confounding factors present", "setting": "[3]; human, in vivo", "value": 2, "unit": "cases"},
      {"measurement": "cases of rhabdomyolysis with no or only weak confounding factors present", "setting": "[3]; human, in vivo", "value": 3, "unit": "cases"},
      {"measurement": "cases reported as CPK increase", "setting": "[3]; human, in vivo", "value": 3, "unit": "cases"},
      {"measurement": "cases reported as rhabdomyolysis", "setting": "[3]; human, in vivo", "value": 7, "unit": "cases"},
      {"measurement": "combined estimated incidence of CPK increase", "setting": "[3]; human, in vivo", "value": "1:611,227"},
      {"measurement": "rhabdomyolysis cases not recovered", "setting": "[3]; human, in vivo", "value": 2, "unit": "cases"},
      {"measurement": "rhabdomyolysis cases recovered", "setting": "[3]; human, in vivo", "value": 2, "unit": "cases"},
      {"measurement": "rhabdomyolysis cases recovering at time of report", "setting": "[3]; human, in vivo", "value": 1, "unit": "cases"},
      {"measurement": "time to development of CPK increase after initiation of zonisamide treatment", "setting": "[3]; human, in vivo", "value": "two (2) days and six (6) weeks"},
      {"measurement": "time to development of rhabdomyolysis after initiation of zonisamide treatment", "setting": "[3]; human, in vivo", "value": "two (2) weeks and nine (9) years"},
      {"measurement": "rhabdomyolysis cases with fatal outcome", "setting": "[3]; of 7 rhabdomyolysis cases", "value": 2, "unit": "cases"},
      {"measurement": "neuronal or glial uptake of [3H]-GABA", "setting": "rat hippocampal slices", "value": "without affecting"},
      {"measurement": "carbonic anhydrase inhibition compared to acetazolamide", "setting": "carbonic anhydrase", "value": "1/50"},
      {"measurement": "binding to GABA/benzodiazepine receptor ionophore complex", "setting": "[4]", "value": "binds to the GABA/benzodiazepine receptor ionophore complex in an allosteric fashion"},
      {"measurement": "changes in chloride flux", "setting": "[4]", "value": "does not produce changes in chloride flux"},
      {"measurement": "effect on voltage-dependent, transient inward currents (T-type Ca2+ currents)", "setting": "T-type Ca2+ currents", "value": "reduces"},
      {"measurement": "effect on sodium channels", "setting": "sodium channels", "value": "blocks sodium channels"},
      {"measurement": "dopaminergic and serotonergic neurotransmission", "setting": "[5]", "value": "facilitates"}
    ]}
  ]
}
